Assay [1] has as its target recombinant human mPGES-1 (Homo sapiens (Human), UniProt O14684). As to the kind of experiment: mPGES-1 enzyme assay (HTRF detection of PGE2). In kind it is biochemical. Particulars: recombinant human mPGES-1 microsomes, PGH2 2 μM, 60 seconds; read-out: mPGES-1 inhibitory effect IC50 in the enzyme assay. In a few lines: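 Microsomes from E. coli expressing recombinant human mPGES-1 (~0.5 μg protein/well) in 0.1 M phosphate pH 7.4 with 2.5 mM GSH, pre-incubated with compound 25 min at room temperature. PGH2 (2 μM final) added, reaction stopped with FeCl2 after 60 s; PGE2 quantified by HTRF (665/620 ratio) against a calibration curve, IC50 by nonlinear regression after background subtraction.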
In general terms: Time-resolved FRET reads energy transfer from a long-lived donor to a nearby acceptor.

The target in assay [2] is mPGES-1 in A549 cells (Homo sapiens (Human), UniProt O14684). Briefly: A549 cell-based assay (PGE2 formation, 50% human serum). Particulars: IL-1β 5 ng/ml, 10 nM arachidonic acid, 20-24 h, read-out: mPGES-1 inhibitory effect IC50 in the cell assay. The essentials: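 A549 cells in F-12K with 50% human serum were stimulated 20-24 h with 5 ng/ml IL-1β and 10 nM arachidonic acid in presence of compound or vehicle. PGE2 in the cell-free medium was measured by HTRF, normalised to vehicle (100%). IC50 from 6-8 point titrations.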

Structures are written as SMILES. Some results are limits rather than exact numbers.

Data on 8 compounds can be found in US8674113B2, “Compounds” (Boehringer Ingelheim International GmbH, priority 2010, dated 2014).

Chain of recombinant human mPGES-1 (O14684 whole entry): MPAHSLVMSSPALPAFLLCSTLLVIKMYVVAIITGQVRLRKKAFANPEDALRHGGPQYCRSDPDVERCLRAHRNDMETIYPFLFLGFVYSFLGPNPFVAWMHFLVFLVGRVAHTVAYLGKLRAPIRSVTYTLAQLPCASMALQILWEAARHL
Chain of mPGES-1 in A549 cells (O14684 whole entry): as above

Turning to `Cn1c(Nc2c(Cl)ccc(CNC(=O)C(C)(C)CO)c2Cl)nc2cc(C(=O)NCCC(F)(F)F)c(N3CCC(C(F)(F)F)CC3)cc21` [Example 175], the IC50 in assay [1] stood at 4 nM; in assay [2] it was 7 nM.
The like results for `Cn1c(Nc2c(Cl)ccc(CNC(=O)C(C)(C)C)c2Cl)nc2cc(C(=O)N[C@H]3CC[C@H](C(F)(F)F)CC3)c(N3CC[C@H](F)C3)cc21` [Example 18] were, in that order, 3 nM and 4 nM.
The like results for `Cn1c(Nc2c(Cl)ccc(CNC(=O)C(C)(C)C)c2Cl)nc2cc(C(=O)N[C@H]3CC[C@@H](C(F)(F)F)CC3)c(N3CC4CC4C3)cc21` (stereo partly shown) [Example 63] were, in that order, 3 nM and 6 nM.
Turning to `Cn1c(Nc2c(Cl)ccc(CNC(=O)[C@](C)(O)C(F)(F)F)c2Cl)nc2cc(C(=O)Nc3ccc(F)c(Cl)c3)c(N3CCC(C(F)(F)F)CC3)cc21` [Example 234], the figures for the half-maximal inhibitory concentration (IC50) in assay [1] and in assay [2] were 3.1 nM and 8 nM, respectively.
With `Cn1c(Nc2c(Cl)ccc(CNC(=O)C3(C)CC3)c2Cl)nc2cc(C(=O)Nc3ccc(OC(F)(F)F)cc3)c(N3CC[C@@H](F)C3)cc21` [Example 156], the IC50 in assay [1] and in assay [2] was 2 nM in each case.
On to `Cn1c(Nc2c(Cl)ccc(CNC(=O)C(C)(C)F)c2Cl)nc2cc(C(=O)NCCC(F)(F)F)c(N3CCC(C(F)(F)F)CC3)cc21` [Example 260], for which the IC50 in assay [1] came to 4 nM; in assay [2], 2 nM.
As for `Cn1c(Nc2c(Cl)ccc(CNC(=O)C(C)(C)C)c2Cl)nc2cc(C(=O)Nc3ccc(OC(F)(F)F)cc3)c(N3CC[C@H](F)C3)cc21` [Example 139], the IC50 was 3 nM in assay [1] and less than 1 nM in assay [2].
Take `CN(CCS(C)(=O)=O)c1cc2c(cc1C(=O)N[C@H]1CC[C@H](C(F)(F)F)CC1)nc(Nc1c(Cl)ccc(CNC(=O)C(C)(C)C)c1Cl)n2C` [Example 105]: the figures for the half-inhibitory concentration (IC50) in assay [1] and in assay [2] were 2 nM and 10 nM, respectively.

A word on the IC50: it is the concentration at which inhibition is half-maximal.
